Laboratory results: US9290464B2 (priority 2010, dated 2016)

What was measured:
GPx = experiment: Activity of GPx in striatum and substantia nigra of mouse; format: in vivo, C57BL/6 mice; settings: 1 mg/kg oral for 8 days, no neurotoxin, FIG. 22
MPTP-induced mouse = experiment: Tail suspension test in MPTP-induced mouse; format: in vivo, C57BL/6 mice; settings: FIG. 3
Procedure: The tail suspension test was performed to measure the extent of causation of behavioral loss according to the administration of MPTP and medicines. The TST was performed in such a manner that 7 days after the compounds described above are respectively administered to the three groups, a circular stainless steel stick with a width of 1 cm was fixed to a cage with a width of 16 cm and a height of 40 cm located at a height of 35 cm and whose left and right sides were covered by black wood. The movement time of the mice was measured for 6 minutes in a second unit, and thus the efficacies of the compounds were evaluated.

6-OHDA-induced rat = experiment: Decrease in neurons of substantia nigra pars compacta in 6-OHDA-induced rat (TH immunohistochemistry and cresyl violet staining); format: in vivo, Wistar rats; settings: FIG. 6
Procedure: Wistar rats provided by ORIENT BIO INC. (excipient and CBI n=7, rasagiline n=6; 6-week-old; 20 male rats) were used as an experimental model. One-side injection of 3 μl of a solution containing 20 μg/μl of 6-OHDA was performed on the striatum of each rat (position: front—1.0 mm, rear—3.0 mm, postabdomen side—5.0 mm), thereby inducing the degeneration of neurons in the striatum. […] 4, 5 and 6 weeks after the last day of administration, an apomorphine-induced rotation test was performed on each group. The apomorphine-induced rotation test was performed in such a manner that 0.5 mg/kg of apomorphine was administered to each group of rats via intraperitoneal injection, each group of rats was placed in a rotor chamber, and the rotary movement thereof was recorded for 45 minutes, and thus the number of rotation per minute of each group of rats was measured to determine the average value thereof. In addition, after the apomorphine-induced rotation test performed 6 weeks after the last day of administration, each group of rats was sacrificed, and thus the extent of a decrease in neurons of substantia nigra pars compacta was confirmed using immunohistochemistry staining using an antibody against tyrosine hydroxylase and cresyl violet staining.

Bcl-xL = experiment: Amount of Bcl-xL protein by western blotting in apoptosis-induced cells; format: cell-based, human; settings: serum-free medium, 24 hours; FIG. 11
From the text: Meanwhile, a variety of signal transduction proteins are involved in a process for mediating or inhibiting apoptosis, and representative examples thereof include Bcl-2 gene family proteins (Journal of Bioenergetics and Biomembranes, 37:179-190 (2005); J. Cell Mol. Med., 7:249-257 (2003); Genes and Development, 13:1899-1911 (1999)). Thus, 0.1, 1 and 10 of CBI or 0.1, 1 and 10 of rasagiline were respectively added to the apoptosis-induced cells as described above, the resulting cells were further incubated in 5% of CO2 at 37° C. for 24 hours, mRNA was extracted from the cultured cells or a cell extract was obtained therefrom, and thus the amount of Bcl-2 mRNA and the amounts of Bcl-2 and Bcl-xL proteins were measured. The amount of Bcl-2 mRNA was measured by real-time RT-PCR, and the amounts of Bcl-2 and Bcl-xL proteins were measured by western blotting.
For western blotting, the SH-SY5Y cells were lysed with RIPA buffer (50 mM Tris-Cl pH 7.4, 1% NP-40, 0.25% sodium deoxycholate, 0.1% SDS, 150 mM NaCl, 1 mM EDTA) and then centrifuged to obtain a cell extract. […]

malonate-induced mouse = experiment: Striatum damage in malonate-induced mouse (TTC staining); format: in vivo, ICR mice; settings: 5 mg/kg i.p., five times; TTC staining 3 days after malonate; FIGS. 7 and 8
Procedure: 5 ml/kg of equithesin was administered to each mouse via intraperitoneal injection to be anesthetized, two levelers of a stereotactic instrument were set at 0 mm from both external auditory canals, and the skull of the mouse was perforated in the stereotactic instrument. 0.2 mg/ml of ascorbic acid was used as a control, and 2.4 umole/2 of malonate was injected into a lesion group and a compound treatment group 0.5 mm forward (AP) and 1.2 mm sideward from striatum on the right side (bregma) and 3.1 mm downward from dura matter by using a Hamilton syringe (10 μl, 26G needle) at a rate of 1 uL/min. The groups administered with malonate were divided into two groups, and 0.5 ml/kg of excipient (n=12) and 5 mg/kg of CBI (n=14) were respectively administered to the two groups via intraperitoneal injection 2 hours before an operation and administered again 1 hour, 1 day, 2 days and 3 days after the operation, i.e., total five times. Malonate was injected into striatum of the mouse, the mouse was sacrificed after 3 days, and the brain was taken out of the mouse to prepare a section. Thereafter, the section was stained with 2,3,5-triphenyltetrazolium chloride (TTC).

Compound: NC(=O)OCc1cc(-c2ccc(OCc3ccccc3)cc2)no1 [CBI, carbamic acid 3-(4-benzyloxy-phenyl)-isoxazole-5-yl methylester]
- increase of the activity of the GPx in substantia nigra (GPx): about 28%
- behavioral restoration in tail suspension test compared with rasagiline group (MPTP-induced mouse; 1 mg/kg oral each): excellent capability of behavioral restoration
- behaviors in tail suspension test (MPTP-induced mouse; 1 mg/kg oral once a day after MPTP 30 mg/kg i.p. x 4 days): the same extent of behaviors as those of normal mice
- effect on decrease in neurons compared with rasagiline group (6-OHDA-induced rat; 1 mg/kg oral each): superior effect
- extent of a decrease in neurons of substantia nigra pars compacta (6-OHDA-induced rat; 1 mg/kg oral, 1 hour before 6-OHDA and once every other day for 6 weeks): significantly decreased extent of a decrease in neurons
- amount of Bcl-xL relative to control (Bcl-xL): larger than that in the control
- damaged regions of the striatum induced by malonate (malonate-induced mouse): significantly reducing damaged regions of the striatum
